Here are results for 13 compounds from US12662479B2 (Foghorn Therapeutics Inc., priority 2020, dated 2026).

SMILES strings stand for the structures. Bounds are passed on as bounds.

The target in one test is T1, HiBit-BRM fusion protein (Homo sapiens, UniProt P51531).
T1 construct: expressed in transfected cells
As to the kind of experiment: HiBiT-BRM cell-based degradation assay (Nano-Glo HiBiT Lytic Detection, 24 h). To be noted: HeLa cells expressing HiBiT-BRM; for DC50: read-out: BRM HiBit Degradation IC50; for BRM HiBit Degradation Maximum measured: top dose 30 μM. The method, boiled down:
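Percent BRM loss was derived from HiBiT luminescence relative to DMSO-treated cells and cells given 2 μM of a known BRM/BRG1 degrader. Treatment lasted 24 h in HiBiT-BRM HeLa cells, with a top final concentration of 30 μM.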
For orientation: HiBiT is a short tag that completes a luciferase, so light tracks the accessible tagged protein.

Test [1] concerns the target T2, HiBit-BRG1 fusion protein (Homo sapiens, UniProt P51532).
T2 construct: expressed in transfected cells
The test can be described thus: HiBiT-BRG1 cell-based degradation assay (Nano-Glo HiBiT Lytic Detection, 24 h). The settings on record: HeLa cells expressing HiBit-BRG1 and LgBit; for DC50: read-out: BRG1 HiBit Degradation IC50; for Dmax: HeLa, top dose 30 μM, read-out: BRG1 HiBit Degradation Maximum measured. The method, boiled down:
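Degradation is scaled from DMSO-treated cells (0%) to cells given 2 μM of a known BRM/BRG1 degrader (100%). HeLa cells stably carrying HiBiT-BRG1 plus LgBiT (5000/well) were lysed with Nano-Glo HiBiT detection reagent, shaken 10 min at RT, and luminescence read.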

T1 sequence (P51531 whole entry, the tested form may be a part): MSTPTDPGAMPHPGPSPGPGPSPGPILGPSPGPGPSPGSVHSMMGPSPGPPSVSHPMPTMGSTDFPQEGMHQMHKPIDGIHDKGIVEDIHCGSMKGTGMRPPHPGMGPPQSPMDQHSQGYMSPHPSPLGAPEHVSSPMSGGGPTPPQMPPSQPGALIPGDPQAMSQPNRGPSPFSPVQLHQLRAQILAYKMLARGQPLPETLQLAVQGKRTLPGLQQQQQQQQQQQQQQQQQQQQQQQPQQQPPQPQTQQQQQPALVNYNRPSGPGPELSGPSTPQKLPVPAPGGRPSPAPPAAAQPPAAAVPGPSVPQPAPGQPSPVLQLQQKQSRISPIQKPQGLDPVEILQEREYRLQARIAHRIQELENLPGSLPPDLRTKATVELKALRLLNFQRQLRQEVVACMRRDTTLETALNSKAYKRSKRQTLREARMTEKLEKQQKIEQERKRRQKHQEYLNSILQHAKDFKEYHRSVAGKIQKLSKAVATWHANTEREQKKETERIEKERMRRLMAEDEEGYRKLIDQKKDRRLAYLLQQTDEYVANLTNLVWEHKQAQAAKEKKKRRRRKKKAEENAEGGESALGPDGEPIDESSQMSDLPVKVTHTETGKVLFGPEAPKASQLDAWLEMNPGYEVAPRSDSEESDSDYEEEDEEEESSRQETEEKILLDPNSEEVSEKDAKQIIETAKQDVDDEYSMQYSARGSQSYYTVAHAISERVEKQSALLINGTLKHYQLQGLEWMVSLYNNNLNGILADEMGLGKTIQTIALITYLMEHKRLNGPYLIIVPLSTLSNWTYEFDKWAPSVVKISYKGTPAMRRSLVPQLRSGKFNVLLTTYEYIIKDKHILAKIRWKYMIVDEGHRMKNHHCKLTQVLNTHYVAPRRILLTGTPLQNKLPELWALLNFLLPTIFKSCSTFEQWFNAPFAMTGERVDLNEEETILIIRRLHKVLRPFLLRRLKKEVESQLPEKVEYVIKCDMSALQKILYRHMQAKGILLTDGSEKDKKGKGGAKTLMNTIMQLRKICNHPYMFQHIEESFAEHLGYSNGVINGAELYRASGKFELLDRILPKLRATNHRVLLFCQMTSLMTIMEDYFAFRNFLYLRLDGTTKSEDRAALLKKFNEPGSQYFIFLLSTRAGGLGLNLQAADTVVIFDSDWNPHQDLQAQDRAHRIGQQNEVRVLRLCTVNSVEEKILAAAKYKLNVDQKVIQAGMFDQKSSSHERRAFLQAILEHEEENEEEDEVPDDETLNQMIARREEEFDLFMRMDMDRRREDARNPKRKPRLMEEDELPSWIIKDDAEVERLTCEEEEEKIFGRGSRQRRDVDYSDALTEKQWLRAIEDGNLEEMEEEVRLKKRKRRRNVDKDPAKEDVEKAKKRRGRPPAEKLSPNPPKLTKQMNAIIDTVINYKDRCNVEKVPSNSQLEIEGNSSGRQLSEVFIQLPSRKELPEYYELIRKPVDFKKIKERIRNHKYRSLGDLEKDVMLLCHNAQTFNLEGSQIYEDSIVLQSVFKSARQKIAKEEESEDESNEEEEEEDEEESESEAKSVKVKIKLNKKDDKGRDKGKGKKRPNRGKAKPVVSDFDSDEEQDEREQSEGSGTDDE
T2 sequence (P51532 whole entry, the tested form may be a part): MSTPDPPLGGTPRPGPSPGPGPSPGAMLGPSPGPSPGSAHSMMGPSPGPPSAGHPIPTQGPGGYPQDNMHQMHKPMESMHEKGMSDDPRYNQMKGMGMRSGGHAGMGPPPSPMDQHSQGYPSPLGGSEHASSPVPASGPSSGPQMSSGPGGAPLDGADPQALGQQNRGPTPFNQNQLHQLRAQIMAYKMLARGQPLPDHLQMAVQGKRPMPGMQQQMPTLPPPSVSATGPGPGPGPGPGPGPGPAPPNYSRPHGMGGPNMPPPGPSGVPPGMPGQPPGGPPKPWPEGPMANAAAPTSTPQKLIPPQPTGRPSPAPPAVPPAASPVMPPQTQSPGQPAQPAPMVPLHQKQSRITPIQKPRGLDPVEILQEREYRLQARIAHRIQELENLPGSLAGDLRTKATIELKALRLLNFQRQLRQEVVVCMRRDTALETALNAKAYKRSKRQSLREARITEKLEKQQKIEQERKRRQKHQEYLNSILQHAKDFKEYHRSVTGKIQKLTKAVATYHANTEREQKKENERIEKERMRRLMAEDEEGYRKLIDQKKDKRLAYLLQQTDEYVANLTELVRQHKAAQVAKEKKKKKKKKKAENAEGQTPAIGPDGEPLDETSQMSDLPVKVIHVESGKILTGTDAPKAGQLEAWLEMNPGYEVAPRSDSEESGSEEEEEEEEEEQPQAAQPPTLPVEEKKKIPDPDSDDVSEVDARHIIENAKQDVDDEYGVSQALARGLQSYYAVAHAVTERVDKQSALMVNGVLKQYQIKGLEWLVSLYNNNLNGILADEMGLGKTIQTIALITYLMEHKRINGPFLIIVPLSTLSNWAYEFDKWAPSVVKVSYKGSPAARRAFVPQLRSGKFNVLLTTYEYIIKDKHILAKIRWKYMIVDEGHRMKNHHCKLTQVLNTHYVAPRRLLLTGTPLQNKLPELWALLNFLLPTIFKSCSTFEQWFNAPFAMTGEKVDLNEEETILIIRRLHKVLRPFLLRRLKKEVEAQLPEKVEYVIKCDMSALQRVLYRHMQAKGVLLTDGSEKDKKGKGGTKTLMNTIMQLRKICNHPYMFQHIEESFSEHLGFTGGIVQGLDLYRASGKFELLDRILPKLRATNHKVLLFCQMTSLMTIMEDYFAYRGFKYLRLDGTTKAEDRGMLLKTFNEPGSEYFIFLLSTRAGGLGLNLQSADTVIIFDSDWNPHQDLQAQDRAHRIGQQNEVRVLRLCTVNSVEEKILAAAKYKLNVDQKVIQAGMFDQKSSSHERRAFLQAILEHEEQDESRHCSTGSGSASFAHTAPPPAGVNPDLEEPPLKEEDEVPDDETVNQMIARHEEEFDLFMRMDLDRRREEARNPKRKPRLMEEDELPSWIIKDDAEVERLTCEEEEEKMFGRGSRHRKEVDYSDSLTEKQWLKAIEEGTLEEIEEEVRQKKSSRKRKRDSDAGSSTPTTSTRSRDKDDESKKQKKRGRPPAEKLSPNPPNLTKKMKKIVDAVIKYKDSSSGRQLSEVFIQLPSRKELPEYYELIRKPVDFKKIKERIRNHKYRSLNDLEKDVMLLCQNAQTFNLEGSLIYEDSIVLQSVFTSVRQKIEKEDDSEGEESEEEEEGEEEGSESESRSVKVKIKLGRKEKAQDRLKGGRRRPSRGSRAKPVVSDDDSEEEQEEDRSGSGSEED

In the case of `CS(=O)(=O)n1ccc(C(=O)N[C@@H](COCc2ccc(C(=O)N3CC4(CCN(CCCNc5ccc6c(c5)C(=O)N(C5CCC(=O)NC5=O)C6=O)CC4)C3)cc2)C(=O)Nc2nc(-c3ccccc3)cs2)c1` (stereo partly drawn) [Compound 234, (2S)-3-([4-[7-(3-[[2-(2,6-dioxopiperidin-3-yl)-1,3-dioxoisoindol-5-yl]amino]propyl)-2,7-diazaspiro[3.5]nonane-2-carbonyl]phenyl]methoxy)-2-[(1-methanesulfonylpyrrol-3-yl)formamido]-N-(4-phenyl-1,3-thiazol-2-yl)propanamide], at HiBit-BRM fusion protein, the DC50 was in the range of 100 to 1000 nM; the “BRM HiBit Degradation Maximum measured” value is “B (‘B’ = Maximum degradation ≥50% and ≤75%)”. Further, in test [1], the DC50 is 100 to 1000 nM and the Dmax lay within 50 to 75%.

For the compound `CS(=O)(=O)n1ccc(C(=O)N[C@@H](COCc2ccc(C(=O)N3CCN(CCCOc4ccc5c(c4)C(=O)N(C4CCC(=O)NC4=O)C5=O)CC3)cc2)C(=O)Nc2nc(-c3ccccc3)cs2)c1` (stereo partly drawn) [Compound 235, (2S)-3-([4-[4-(3-[[2-(2,6-dioxopiperidin-3-yl)-1,3-dioxoisoindol-5-yl]oxy]propyl)piperazine-1-carbonyl]phenyl]methoxy)-2-[(1-methanesulfonylpyrrol-3-yl)formamido]-N-(4-phenyl-1,3-thiazol-2-yl)propanamide], at HiBit-BRM fusion protein, the DC50 was > 10000 nM and the “BRM HiBit Degradation Maximum measured” value is recorded as “C (‘C’ = Maximum degradation <50%)”. In test [1], the DC50 is > 10000 nM and the Dmax is < 50%.

As to `CS(=O)(=O)n1ccc(C(=O)N[C@@H](COCc2ccc(C(=O)NCCOCCOCCOCCNC(=O)COc3cccc4c3C(=O)N(C3CCC(=O)NC3=O)C4=O)cc2)C(=O)Nc2nc(-c3ccccc3)cs2)c1` (stereo partly drawn) [Compound 236, N-((2S)-3-((4-((1-((2-(2,6-dioxopiperidin-3-yl)-1,3-dioxoisoindolin-4-yl)oxy)-2-oxo-6,9,12-trioxa-3-azatetradecan-14-yl)carbamoyl)benzyl)oxy)-1-oxo-1-((4-phenylthiazol-2-yl)amino)propan-2-yl)-1-(methylsulfonyl)-1H-pyrrole-3-carboxamide], at HiBit-BRM fusion protein, the DC50 was > 10000 nM and the “BRM HiBit Degradation Maximum measured” value is recorded as “C (‘C’ = Maximum degradation <50%)”. Besides, in test [1], the DC50 is > 10000 nM and the Dmax was < 50%.

Regarding `CS(=O)(=O)n1ccc(C(=O)N[C@@H](COCc2ccc(C(=O)NCCOCc3cccc(COCCOc4ccc5c(c4)C(=O)N(C4CCC(=O)NC4=O)C5=O)c3)cc2)C(=O)Nc2nc(-c3ccccc3)cs2)c1` (stereo partly drawn) [Compound 237, N-[2-([3-[(2-[[2-(2,6-dioxopiperidin-3-yl)-1,3-dioxoisoindol-5-yl]oxy]ethoxy)methyl]phenyl]methoxy)ethyl]-4-[[(2S)-2-[(1-methanesulfonylpyrrol-3-yl)formamido]-2-[(4-phenyl-1,3-thiazol-2-yl)carbamoyl]ethoxy]methyl]benzamide], on HiBit-BRM fusion protein, the DC50 lay within 100 to 1000 nM; the “BRM HiBit Degradation Maximum measured” value was “B (‘B’ = Maximum degradation ≥50% and ≤75%)”. In test [1], the DC50 fell in the range of 100 to 1000 nM and the Dmax was in the range of 50 to 75%.

Consider `CS(=O)(=O)n1ccc(C(=O)N[C@@H](COCc2ccc(C(=O)N3CC(CCOc4cccc5c4C(=O)N(C4CCC(=O)NC4=O)C5=O)C3)cc2)C(=O)Nc2nc(-c3ccccc3)cs2)c1` (stereo partly drawn) [Compound 238, (2S)-3-([4-[3-(2-[[2-(2,6-dioxopiperidin-3-yl)-1,3-dioxoisoindol-4-yl]oxy]ethyl)azetidine-1-carbonyl]phenyl]methoxy)-2-[(1-methanesulfonylpyrrol-3-yl)formamido]-N-(4-phenyl-1,3-thiazol-2-yl)propanamide], for which, on HiBit-BRM fusion protein, the DC50 is > 10000 nM and the “BRM HiBit Degradation Maximum measured” value is listed as “C (‘C’ = Maximum degradation <50%)”. Also, in test [1], the DC50 was > 10000 nM and the Dmax was < 50%.

As for `CS(=O)(=O)n1ccc(C(=O)N[C@@H](COCc2ccc(C(=O)N3CCN(CCCC#Cc4ccc5c(c4)C(=O)N(C4CCC(=O)NC4=O)C5=O)CC3)cc2)C(=O)Nc2nc(-c3ccccc3)cs2)c1.O=CO` (stereo partly drawn) [Compound 239, (2S)-3-[[4-(4-[5-[2-(2,6-dioxopiperidin-3-yl)-1,3-dioxoisoindol-5-yl]pent-4-yn-1-yl]piperazine-1-carbonyl)phenyl]methoxy]-2-[(1-methanesulfonylpyrrol-3-yl)formamido]-N-(4-phenyl-1,3-thiazol-2-yl)propanamide; formic acid], at HiBit-BRM fusion protein, the DC50 is > 10000 nM and the “BRM HiBit Degradation Maximum measured” value is listed as “C (‘C’ = Maximum degradation <50%)”. Further, in test [1], the DC50 was > 10000 nM and the Dmax is < 50%.

With `CS(=O)(=O)n1ccc(C(=O)N[C@@H](COCc2ccc(C(=O)NCCNc3ccc4c(c3)C(=O)N(C3CCC(=O)NC3=O)C4=O)cc2)C(=O)Nc2nc(-c3ccccc3)cs2)c1` (stereo partly drawn) [Compound 240, N-(2-[[2-(2,6-dioxopiperidin-3-yl)-1,3-dioxoisoindol-5-yl]amino]ethyl)-4-[[(2S)-2-[(1-methanesulfonylpyrrol-3-yl)formamido]-2-[(4-phenyl-1,3-thiazol-2-yl)carbamoyl]ethoxy]methyl]benzamide], at HiBit-BRM fusion protein, the DC50 is > 10000 nM and the “BRM HiBit Degradation Maximum measured” value is “C (‘C’ = Maximum degradation <50%)”. In test [1], the DC50 was > 10000 nM and the Dmax is < 50%.

With `CS(=O)(=O)n1ccc(C(=O)N[C@@H](COCc2ccc(C(=O)NCCCCNc3ccc4c(c3)C(=O)N(C3CCC(=O)NC3=O)C4=O)cc2)C(=O)Nc2nc(-c3ccccc3)cs2)c1` (stereo partly shown) [Compound 242], at HiBit-BRM fusion protein, the DC50 fell in the range of 100 to 1000 nM; the “BRM HiBit Degradation Maximum measured” value was “B (‘B’ = Maximum degradation ≥50% and ≤75%)”. Further, in test [1], the DC50 lay within 100 to 1000 nM and the Dmax was 50 to 75%.

On to `CS(=O)(=O)n1ccc(C(=O)N[C@@H](COCc2ccc(C(=O)NCCCCCNc3ccc4c(c3)C(=O)N(C3CCC(=O)NC3=O)C4=O)cc2)C(=O)Nc2nc(-c3ccccc3)cs2)c1` (stereo partly drawn) [Compound 243, N-(5-[[2-(2,6-dioxopiperidin-3-yl)-1,3-dioxoisoindol-5-yl]amino]pentyl)-4-[[(2S)-2-[(1-methanesulfonylpyrrol-3-yl)formamido]-2-[(4-phenyl-1,3-thiazol-2-yl)carbamoyl]ethoxy]methyl]benzamide], for which, at HiBit-BRM fusion protein, the DC50 is 100 to 1000 nM; the “BRM HiBit Degradation Maximum measured” value is “B (‘B’ = Maximum degradation ≥50% and ≤75%)”. For the same compound, in test [1], the DC50 fell in the range of 100 to 1000 nM and the Dmax is > 75%.

In the case of `CN(CCNC(=O)c1ccc(COCC(NC(=O)c2ccn(S(C)(=O)=O)c2)C(=O)Nc2nc(-c3ccccc3)cs2)cc1)CCNc1cccc2c1C(=O)N(C1CCC(=O)NC1=O)C2=O` [Compound 244, (N-[2-[(2-[[2-(2,6-dioxopiperidin-3-yl)-1,3-dioxoisoindol-4-yl]amino]ethyl)(methyl)amino]ethyl]-4-[[(2S)-2-[(1-methanesulfonylpyrrol-3-yl)formamido]-2-[(4-phenyl-1,3-thiazol-2-yl)carbamoyl]ethoxy]methyl]benzamide], at HiBit-BRM fusion protein, the DC50 is > 10000 nM and the “BRM HiBit Degradation Maximum measured” value is recorded as “C (‘C’ = Maximum degradation <50%)”. Moreover, in test [1], the DC50 was > 10000 nM and the Dmax was < 50%.

In the case of `CS(=O)(=O)n1ccc(C(=O)N[C@@H](COCc2ccc(C(=O)NCCC3CCN(c4ccc5c(c4)C(=O)N(C4CCC(=O)NC4=O)C5=O)CC3)cc2)C(=O)Nc2nc(-c3ccccc3)cs2)c1` (stereo partly drawn) [Compound 245, N-(2-[1-[2-(2,6-dioxopiperidin-3-yl)-1,3-dioxoisoindol-5-yl]piperidin-4-yl]ethyl)-4-[[(2S)-2-[(1-methanesulfonylpyrrol-3-yl)formamido]-2-[(4-phenyl-1,3-thiazol-2-yl)carbamoyl]ethoxy]methyl]benzamide], on HiBit-BRM fusion protein, the DC50 was < 100 nM and the “BRM HiBit Degradation Maximum measured” value is “A (‘A’ = Maximum degradation >75%)”. Besides, in test [1], the DC50 was < 100 nM and the Dmax was > 75%.

As for `CS(=O)(=O)n1ccc(C(=O)N[C@@H](COCc2ccc(C(=O)NCCOC3CN(c4ccc5c(c4)C(=O)N(C4CCC(=O)NC4=O)C5=O)C3)cc2)C(=O)Nc2nc(-c3ccccc3)cs2)c1` (stereo partly drawn) [Compound 246, N-[2-([1-[2-(2,6-dioxopiperidin-3-yl)-1,3-dioxoisoindol-5-yl]azetidin-3-yl]oxy)ethyl]-4-[[(2S)-2-[(1-methanesulfonylpyrrol-3-yl)formamido]-2-[(4-phenyl-1,3-thiazol-2-yl)carbamoyl]ethoxy]methyl]benzamide], at HiBit-BRM fusion protein, the DC50 was in the range of 100 to 1000 nM; the “BRM HiBit Degradation Maximum measured” value was “B (‘B’ = Maximum degradation ≥50% and ≤75%)”. In test [1], the DC50 was 100 to 1000 nM and the Dmax is > 75%.

In the case of `CS(=O)(=O)n1ccc(C(=O)N[C@@H](COCc2ccc(C(=O)NC3CCN(CCOc4ccc5c(c4)C(=O)N(C4CCC(=O)NC4=O)C5=O)CC3)cc2)C(=O)Nc2nc(-c3ccccc3)cs2)c1` (stereo partly drawn) [Compound 247, N-[1-(2-[[2-(2,6-dioxopiperidin-3-yl)-1,3-dioxoisoindol-5-yl]oxy]ethyl)piperidin-4-yl]-4-[[(2S)-2-[(1-methanesulfonylpyrrol-3-yl)formamido]-2-[(4-phenyl-1,3-thiazol-2-yl)carbamoyl]ethoxy]methyl]benzamide], on HiBit-BRM fusion protein, the DC50 lay within 100 to 1000 nM and the “BRM HiBit Degradation Maximum measured” value was “A (‘A’ = Maximum degradation >75%)”. In addition, in test [1], the DC50 lay within 100 to 1000 nM and the Dmax is > 75%.
